How the values were obtained:
Test in all cases: KINOMEscan
Assay type in all cases: binding
Conditions in all cases: 35 at 1 µM; read-out: % inhibition
DAPK2 = molecular target: T1, DAPK2 (Homo sapiens, UniProt Q9UIK4)
T1 construct: purchased Eurofins DiscoverX (KINOMEscan)
Description: (§1) KinomeScan Assay on 35 was performed as previously described at EuroFins DiscoverX (Fremont, CA, USA).

[1] = molecular target: T2, ABL1(M351T)-phosphorylated (Homo sapiens, UniProt P00519, M351T)
T2 construct: purchased Eurofins DiscoverX (KINOMEscan)
Description: as §1

FER = molecular target: T3, FER (Homo sapiens, UniProt P16591)
T3 construct: purchased Eurofins DiscoverX (KINOMEscan)
Description: as §1

FES = molecular target: T4, FES (Homo sapiens, UniProt P07332)
T4 construct: purchased Eurofins DiscoverX (KINOMEscan)
Description: as §1

PKAC-alpha = molecular target: T5, PKAC-alpha (Homo sapiens, UniProt P17612)
T5 construct: purchased Eurofins DiscoverX (KINOMEscan)
Description: as §1

TBK1 = molecular target: T6, TBK1 (Homo sapiens, UniProt Q9UHD2)
T6 construct: purchased Eurofins DiscoverX (KINOMEscan)
Description: as §1

LCK = molecular target: T7, LCK (Homo sapiens, UniProt P06239)
T7 construct: purchased Eurofins DiscoverX (KINOMEscan)
Description: as §1

KIT(A829P) = molecular target: T8, KIT(A829P) (Homo sapiens, UniProt P10721, A829P)
T8 construct: purchased Eurofins DiscoverX (KINOMEscan)
Description: as §1

RIPK1 = molecular target: T9, RIPK1 (Homo sapiens, UniProt Q13546)
T9 construct: purchased Eurofins DiscoverX (KINOMEscan)
Description: as §1

CDK2 = molecular target: T10, CDK2 (Homo sapiens, UniProt P24941)
T10 construct: purchased Eurofins DiscoverX (KINOMEscan)
Description: as §1

PIK3CA(E545A) = molecular target: T11, PIK3CA(E545A) (Homo sapiens, UniProt P42336, E545A)
T11 construct: purchased Eurofins DiscoverX (KINOMEscan)
Description: as §1

BRK = molecular target: T12, BRK (Homo sapiens, UniProt Q13882)
T12 construct: purchased Eurofins DiscoverX (KINOMEscan)
Description: as §1

TNK1 = molecular target: T13, TNK1 (Homo sapiens, UniProt Q13470)
T13 construct: purchased Eurofins DiscoverX (KINOMEscan)
Description: as §1

LIMK2 = molecular target: T14, LIMK2 (Homo sapiens, UniProt P53671)
T14 construct: purchased Eurofins DiscoverX (KINOMEscan)
Description: as §1

MST3 = molecular target: T15, MST3 (Homo sapiens, UniProt Q9Y6E0)
T15 construct: purchased Eurofins DiscoverX (KINOMEscan)
Description: as §1

PRKCI = molecular target: T16, PRKCI (Homo sapiens, UniProt P41743)
T16 construct: purchased Eurofins DiscoverX (KINOMEscan)
Description: as §1

[2] = molecular target: T17, RSK4(Kin.Dom.2-C-terminal) (Homo sapiens, UniProt Q9UK32)
T17 construct: RSK4(Kin.Dom.2-C-terminal); purchased Eurofins DiscoverX (KINOMEscan)
Description: as §1

PLK4 = molecular target: T18, PLK4 (Homo sapiens, UniProt O00444)
T18 construct: purchased Eurofins DiscoverX (KINOMEscan)
Description: as §1

[3] = molecular target: T19, ABL1(T315I)-nonphosphorylated (Homo sapiens, UniProt P00519, T315I)
T19 construct: purchased Eurofins DiscoverX (KINOMEscan)
Description: as §1

LATS2 = molecular target: T20, LATS2 (Homo sapiens, UniProt Q9NRM7)
T20 construct: purchased Eurofins DiscoverX (KINOMEscan)
Description: as §1

CAMK2A = molecular target: T21, CAMK2A (Homo sapiens, UniProt Q9UQM7)
T21 construct: purchased Eurofins DiscoverX (KINOMEscan)
Description: as §1

VRK2 = molecular target: T22, VRK2 (Homo sapiens, UniProt Q86Y07)
T22 construct: purchased Eurofins DiscoverX (KINOMEscan)
Description: as §1

RET = molecular target: T23, RET (Homo sapiens, UniProt P07949)
T23 construct: purchased Eurofins DiscoverX (KINOMEscan)
Description: as §1

NEK10 = molecular target: T24, NEK10 (Homo sapiens, UniProt Q6ZWH5)
T24 construct: purchased Eurofins DiscoverX (KINOMEscan)
Description: as §1

JNK2 = molecular target: T25, JNK2 (Homo sapiens, UniProt P45984)
T25 construct: purchased Eurofins DiscoverX (KINOMEscan)
Description: as §1

NEK9 = molecular target: T26, NEK9 (Homo sapiens, UniProt Q8TD19)
T26 construct: purchased Eurofins DiscoverX (KINOMEscan)
Description: as §1

NEK1 = molecular target: T27, NEK1 (Homo sapiens, UniProt Q96PY6)
T27 construct: purchased Eurofins DiscoverX (KINOMEscan)
Description: as §1

SGK3 = molecular target: T28, SGK3 (Homo sapiens, UniProt Q96BR1)
T28 construct: purchased Eurofins DiscoverX (KINOMEscan)
Description: as §1

PIK3CA(E545K) = molecular target: T29, PIK3CA(E545K) (Homo sapiens, UniProt P42336, E545K)
T29 construct: purchased Eurofins DiscoverX (KINOMEscan)
Description: as §1

MET = molecular target: T30, MET (Homo sapiens, UniProt P08581)
T30 construct: purchased Eurofins DiscoverX (KINOMEscan)
Description: as §1

NEK4 = molecular target: T31, NEK4 (Homo sapiens, UniProt P51957)
T31 construct: purchased Eurofins DiscoverX (KINOMEscan)
Description: as §1

PDGFRA = molecular target: T32, PDGFRA (Homo sapiens, UniProt P16234)
T32 construct: purchased Eurofins DiscoverX (KINOMEscan)
Description: as §1

GSK3A = molecular target: T33, GSK3A (Homo sapiens, UniProt P49840)
T33 construct: purchased Eurofins DiscoverX (KINOMEscan)
Description: as §1

GSK3B = molecular target: T34, GSK3B (Homo sapiens, UniProt P49841)
T34 construct: purchased Eurofins DiscoverX (KINOMEscan)
Description: as §1

[4] = molecular target: T35, ABL1(F317L)-phosphorylated (Homo sapiens, UniProt P00519, F317L)
T35 construct: purchased Eurofins DiscoverX (KINOMEscan)
Description: as §1

ADCK3 = molecular target: T36, ADCK3 (Homo sapiens, UniProt Q8NI60)
T36 construct: purchased Eurofins DiscoverX (KINOMEscan)
Description: as §1

CSNK1E = molecular target: T37, CSNK1E (Homo sapiens, UniProt P49674)
T37 construct: purchased Eurofins DiscoverX (KINOMEscan)
Description: as §1

CSNK1A1 = molecular target: T38, CSNK1A1 (Homo sapiens, UniProt P48729)
T38 construct: purchased Eurofins DiscoverX (KINOMEscan)
Description: as §1

IRAK1 = molecular target: T39, IRAK1 (Homo sapiens, UniProt P51617)
T39 construct: purchased Eurofins DiscoverX (KINOMEscan)
Description: as §1

KIT(V559D,T670I) = molecular target: T40, KIT(V559D,T670I) (Homo sapiens, UniProt P10721, T670I/V559D)
T40 construct: purchased Eurofins DiscoverX (KINOMEscan)
Description: as §1

PIM2 = molecular target: T41, PIM2 (Homo sapiens, UniProt Q9P1W9)
T41 construct: purchased Eurofins DiscoverX (KINOMEscan)
Description: as §1

[5] = molecular target: T42, TYK2(JH2domain-pseudokinase) (Homo sapiens, UniProt P29597)
T42 construct: TYK2(JH2domain-pseudokinase); purchased Eurofins DiscoverX (KINOMEscan)
Description: as §1

T17 sequence (Q9UK32 401-745): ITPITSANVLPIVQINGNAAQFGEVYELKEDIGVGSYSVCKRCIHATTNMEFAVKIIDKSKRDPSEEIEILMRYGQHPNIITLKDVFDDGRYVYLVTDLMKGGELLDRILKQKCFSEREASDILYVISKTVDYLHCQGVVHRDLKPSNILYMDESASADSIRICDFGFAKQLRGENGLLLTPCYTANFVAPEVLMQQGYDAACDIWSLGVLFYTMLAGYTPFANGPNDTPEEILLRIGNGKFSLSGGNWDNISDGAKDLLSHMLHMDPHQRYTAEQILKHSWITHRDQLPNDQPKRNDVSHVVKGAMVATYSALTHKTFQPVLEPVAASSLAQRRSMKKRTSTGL
T29 sequence (P42336 whole entry E545K): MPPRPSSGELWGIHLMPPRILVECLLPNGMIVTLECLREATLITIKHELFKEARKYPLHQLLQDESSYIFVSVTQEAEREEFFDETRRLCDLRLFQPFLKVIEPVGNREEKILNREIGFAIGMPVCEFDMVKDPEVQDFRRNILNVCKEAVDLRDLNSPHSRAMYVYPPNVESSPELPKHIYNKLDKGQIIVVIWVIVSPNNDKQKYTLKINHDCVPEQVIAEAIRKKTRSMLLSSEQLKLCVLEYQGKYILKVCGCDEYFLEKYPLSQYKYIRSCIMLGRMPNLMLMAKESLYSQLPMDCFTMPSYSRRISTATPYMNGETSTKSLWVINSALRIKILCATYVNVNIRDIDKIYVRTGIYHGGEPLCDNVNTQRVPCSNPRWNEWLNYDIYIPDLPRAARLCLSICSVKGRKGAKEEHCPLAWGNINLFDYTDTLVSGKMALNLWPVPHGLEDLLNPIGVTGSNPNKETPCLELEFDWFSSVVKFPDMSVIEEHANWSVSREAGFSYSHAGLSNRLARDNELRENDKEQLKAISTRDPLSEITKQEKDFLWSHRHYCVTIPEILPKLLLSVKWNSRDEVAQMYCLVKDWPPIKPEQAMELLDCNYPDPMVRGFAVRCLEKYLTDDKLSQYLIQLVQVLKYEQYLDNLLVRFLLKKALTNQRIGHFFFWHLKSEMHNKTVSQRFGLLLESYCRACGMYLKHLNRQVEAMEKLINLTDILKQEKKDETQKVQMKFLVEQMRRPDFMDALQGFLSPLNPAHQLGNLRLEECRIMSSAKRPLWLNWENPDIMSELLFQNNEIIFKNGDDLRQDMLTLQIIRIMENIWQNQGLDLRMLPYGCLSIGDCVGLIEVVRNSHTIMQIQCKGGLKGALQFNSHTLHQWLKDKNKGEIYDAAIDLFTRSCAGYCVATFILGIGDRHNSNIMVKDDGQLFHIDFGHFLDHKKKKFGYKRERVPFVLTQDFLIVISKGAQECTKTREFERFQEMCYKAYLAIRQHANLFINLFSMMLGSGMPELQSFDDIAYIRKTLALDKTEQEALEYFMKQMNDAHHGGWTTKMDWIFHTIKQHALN
T9 sequence (Q13546 whole entry): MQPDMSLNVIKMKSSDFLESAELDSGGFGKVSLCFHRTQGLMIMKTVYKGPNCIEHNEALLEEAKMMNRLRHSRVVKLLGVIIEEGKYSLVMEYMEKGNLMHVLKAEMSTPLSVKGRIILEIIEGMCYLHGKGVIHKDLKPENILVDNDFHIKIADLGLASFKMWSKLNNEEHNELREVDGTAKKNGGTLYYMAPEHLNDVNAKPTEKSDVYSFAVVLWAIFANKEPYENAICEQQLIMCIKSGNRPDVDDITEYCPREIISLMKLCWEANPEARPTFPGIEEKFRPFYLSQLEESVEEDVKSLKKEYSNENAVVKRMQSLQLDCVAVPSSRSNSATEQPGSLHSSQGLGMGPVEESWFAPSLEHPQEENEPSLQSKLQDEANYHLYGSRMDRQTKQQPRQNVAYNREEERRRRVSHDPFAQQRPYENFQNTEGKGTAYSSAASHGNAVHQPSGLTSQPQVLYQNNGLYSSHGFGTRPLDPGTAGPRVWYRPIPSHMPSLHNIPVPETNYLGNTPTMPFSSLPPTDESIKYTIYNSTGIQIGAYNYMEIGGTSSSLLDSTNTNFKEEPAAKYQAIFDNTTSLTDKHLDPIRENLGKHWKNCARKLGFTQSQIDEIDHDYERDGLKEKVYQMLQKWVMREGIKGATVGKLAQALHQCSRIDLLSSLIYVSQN
T30 sequence (P08581 25-1390): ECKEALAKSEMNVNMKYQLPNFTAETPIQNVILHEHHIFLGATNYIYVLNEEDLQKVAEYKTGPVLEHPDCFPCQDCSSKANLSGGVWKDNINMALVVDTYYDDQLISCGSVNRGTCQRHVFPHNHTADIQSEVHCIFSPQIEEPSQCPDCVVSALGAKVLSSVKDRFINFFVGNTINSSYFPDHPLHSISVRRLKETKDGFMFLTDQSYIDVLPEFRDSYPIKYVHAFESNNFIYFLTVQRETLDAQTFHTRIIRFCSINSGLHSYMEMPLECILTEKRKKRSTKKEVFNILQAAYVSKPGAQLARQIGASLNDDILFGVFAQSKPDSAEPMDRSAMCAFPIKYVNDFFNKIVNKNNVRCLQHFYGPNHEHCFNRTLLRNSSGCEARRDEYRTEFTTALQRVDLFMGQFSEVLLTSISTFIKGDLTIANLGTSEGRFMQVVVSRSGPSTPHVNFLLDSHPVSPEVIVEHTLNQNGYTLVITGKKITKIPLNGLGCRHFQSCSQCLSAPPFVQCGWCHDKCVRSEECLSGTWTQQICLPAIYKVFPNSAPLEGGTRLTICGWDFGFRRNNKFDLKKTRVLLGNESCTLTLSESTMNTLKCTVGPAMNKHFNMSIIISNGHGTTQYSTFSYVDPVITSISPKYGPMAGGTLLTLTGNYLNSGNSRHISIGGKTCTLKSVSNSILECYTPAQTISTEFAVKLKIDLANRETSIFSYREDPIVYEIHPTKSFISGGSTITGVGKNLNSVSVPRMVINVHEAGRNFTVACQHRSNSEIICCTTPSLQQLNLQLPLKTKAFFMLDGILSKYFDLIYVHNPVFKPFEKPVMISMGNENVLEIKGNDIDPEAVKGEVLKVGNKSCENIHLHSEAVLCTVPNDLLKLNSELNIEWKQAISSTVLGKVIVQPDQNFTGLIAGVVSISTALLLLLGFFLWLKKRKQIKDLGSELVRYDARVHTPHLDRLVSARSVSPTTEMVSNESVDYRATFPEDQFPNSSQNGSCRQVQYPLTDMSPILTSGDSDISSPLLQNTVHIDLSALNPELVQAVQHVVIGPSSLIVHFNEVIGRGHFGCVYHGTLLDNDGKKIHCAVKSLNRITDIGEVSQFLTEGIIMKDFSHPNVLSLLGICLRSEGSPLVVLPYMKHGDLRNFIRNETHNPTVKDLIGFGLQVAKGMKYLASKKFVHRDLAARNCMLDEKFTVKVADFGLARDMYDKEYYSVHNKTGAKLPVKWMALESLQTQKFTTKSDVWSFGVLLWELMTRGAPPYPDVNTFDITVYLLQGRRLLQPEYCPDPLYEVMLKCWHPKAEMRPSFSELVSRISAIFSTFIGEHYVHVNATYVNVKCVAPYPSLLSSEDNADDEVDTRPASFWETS
T41 sequence (Q9P1W9 whole entry): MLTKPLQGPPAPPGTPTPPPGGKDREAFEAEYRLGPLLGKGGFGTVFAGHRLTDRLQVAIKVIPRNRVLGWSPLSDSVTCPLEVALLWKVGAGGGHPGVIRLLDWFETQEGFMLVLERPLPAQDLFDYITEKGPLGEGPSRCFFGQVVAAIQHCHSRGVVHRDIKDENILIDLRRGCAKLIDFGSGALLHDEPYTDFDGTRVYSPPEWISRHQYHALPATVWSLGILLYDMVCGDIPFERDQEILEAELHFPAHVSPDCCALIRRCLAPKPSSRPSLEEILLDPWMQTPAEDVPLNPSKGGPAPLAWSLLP
T39 sequence (P51617 whole entry): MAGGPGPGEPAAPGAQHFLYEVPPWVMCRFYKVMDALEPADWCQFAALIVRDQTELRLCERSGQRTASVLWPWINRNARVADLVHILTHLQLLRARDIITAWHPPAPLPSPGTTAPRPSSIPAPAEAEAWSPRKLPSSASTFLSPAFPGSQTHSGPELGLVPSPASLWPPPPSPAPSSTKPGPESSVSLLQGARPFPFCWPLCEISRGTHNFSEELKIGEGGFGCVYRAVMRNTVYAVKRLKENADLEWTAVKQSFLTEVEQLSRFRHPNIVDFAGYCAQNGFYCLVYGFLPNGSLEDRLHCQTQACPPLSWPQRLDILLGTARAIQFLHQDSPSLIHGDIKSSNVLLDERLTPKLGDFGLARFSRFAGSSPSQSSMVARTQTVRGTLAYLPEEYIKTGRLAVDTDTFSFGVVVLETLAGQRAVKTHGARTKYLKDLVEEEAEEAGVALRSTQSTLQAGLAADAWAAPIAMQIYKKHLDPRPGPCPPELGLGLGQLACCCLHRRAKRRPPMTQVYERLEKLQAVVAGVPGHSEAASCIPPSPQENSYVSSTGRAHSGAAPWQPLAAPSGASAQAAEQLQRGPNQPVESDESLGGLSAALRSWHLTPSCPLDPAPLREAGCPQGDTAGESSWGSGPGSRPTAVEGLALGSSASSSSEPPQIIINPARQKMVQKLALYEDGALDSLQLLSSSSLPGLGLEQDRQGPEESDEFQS
T15 sequence (Q9Y6E0 whole entry): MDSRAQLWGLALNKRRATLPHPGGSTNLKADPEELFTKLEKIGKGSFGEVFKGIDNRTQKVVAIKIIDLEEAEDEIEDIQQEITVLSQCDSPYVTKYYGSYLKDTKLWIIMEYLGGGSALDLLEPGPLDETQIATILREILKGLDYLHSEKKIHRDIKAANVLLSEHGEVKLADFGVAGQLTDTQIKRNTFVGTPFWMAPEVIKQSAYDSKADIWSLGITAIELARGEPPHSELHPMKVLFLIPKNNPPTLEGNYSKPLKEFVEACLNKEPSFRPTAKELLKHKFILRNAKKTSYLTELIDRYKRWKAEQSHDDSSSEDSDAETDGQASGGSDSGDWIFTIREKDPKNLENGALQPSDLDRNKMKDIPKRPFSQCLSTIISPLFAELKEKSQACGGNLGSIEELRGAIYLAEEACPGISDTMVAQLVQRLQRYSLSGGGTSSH
T11 sequence (P42336 whole entry E545A): as the sequence (P42336 whole entry E545K) above, with K545A counted along it

Molecule Brc1ccc2nccc(Nc3ccc4cn[nH]c4c3)c2c1 [Compound 35, 6-Bromo-N-(1H-indazol-6-yl)quinolin-4-amine] has an activity at 1 µM (DAPK2) of 100%, an activity at 1 µM [1] of 100% and an activity at 1 µM (FER) of 96%. The activity at 1 µM (FES) was 100%, the activity at 1 µM (PKAC-alpha) was 98% and the activity at 1 µM (TBK1) was 76%. For the same molecule, the activity at 1 µM (LCK) was 100%, the activity at 1 µM (KIT(A829P)) was 100% and the activity at 1 µM (RIPK1) was 100%. The activity at 1 µM (CDK2) was 100%, the activity at 1 µM (PIK3CA(E545A)) was 98% and the activity at 1 µM (BRK) was 93%. The activity at 1 µM (TNK1) was 69%, the activity at 1 µM (LIMK2) was 100% and the activity at 1 µM (MST3) was 100%. For the same molecule, the activity at 1 µM (PRKCI) was 60%, the activity at 1 µM [2] was 81% and the activity at 1 µM (PLK4) was 100%. The activity at 1 µM [3] was 100%, the activity at 1 µM (LATS2) was 88% and the activity at 1 µM (CAMK2A) was 100%. The activity at 1 µM (VRK2) was 100%, the activity at 1 µM (RET) was 100% and the activity at 1 µM (NEK10) was 100%. For the same molecule, the activity at 1 µM (JNK2) was 100%, the activity at 1 µM (NEK9) was 100% and the activity at 1 µM (NEK1) was 100%. The activity at 1 µM (SGK3) was 100%, the activity at 1 µM (PIK3CA(E545K)) was 66% and the activity at 1 µM (MET) was 100%. The activity at 1 µM (NEK4) was 100%, the activity at 1 µM (PDGFRA) was 100% and the activity at 1 µM (GSK3A) was 100%. It also gave an activity at 1 µM (GSK3B) of 97%, an activity at 1 µM [4] of 85% and an activity at 1 µM (ADCK3) of 100%. The activity at 1 µM (CSNK1E) was 100%, the activity at 1 µM (CSNK1A1) was 62% and the activity at 1 µM (IRAK1) was 100%. For the same molecule, the activity at 1 µM (KIT(V559D,T670I)) was 100%, the activity at 1 µM (PIM2) was 100% and the activity at 1 µM [5] was 100%.

From PMC6891286, “Towards the Development of an In vivo Chemical Probe for Cyclin G Associated Kinase (GAK)” (Molecules, 2019)
